Measured values as given in US20230159509A1 (Amathus Therapeutics, Inc., priority 2020, published 2023).

Target: T1, TRAP1 enzyme (Homo sapiens, UniProt Q12931)
T1 construct: 150 nM Trap1 enzyme was incubated with various concentrations of the test compound
T1 sequence (Q12931 60-704): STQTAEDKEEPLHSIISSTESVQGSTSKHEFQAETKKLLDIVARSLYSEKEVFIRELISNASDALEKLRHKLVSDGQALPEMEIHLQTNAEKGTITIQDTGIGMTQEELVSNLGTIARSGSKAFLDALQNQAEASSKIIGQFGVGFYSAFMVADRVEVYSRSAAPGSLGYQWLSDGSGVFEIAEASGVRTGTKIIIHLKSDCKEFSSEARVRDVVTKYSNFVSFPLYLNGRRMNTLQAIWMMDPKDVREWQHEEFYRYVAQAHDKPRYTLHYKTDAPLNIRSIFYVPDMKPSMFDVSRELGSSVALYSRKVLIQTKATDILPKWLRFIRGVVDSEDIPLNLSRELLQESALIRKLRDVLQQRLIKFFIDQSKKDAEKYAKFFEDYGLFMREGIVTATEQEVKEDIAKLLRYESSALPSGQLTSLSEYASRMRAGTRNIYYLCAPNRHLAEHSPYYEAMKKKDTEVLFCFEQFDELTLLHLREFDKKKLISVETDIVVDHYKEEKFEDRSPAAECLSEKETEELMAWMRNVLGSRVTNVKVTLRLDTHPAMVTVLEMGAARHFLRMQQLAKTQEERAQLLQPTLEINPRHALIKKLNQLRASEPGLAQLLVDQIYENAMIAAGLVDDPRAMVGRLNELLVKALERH
Experiment: ADP Glo assay of TRAP1 ATPase activity
Assay type: biochemical
Settings: 1 h; compound concentration 50 μM; read-out: ADP-Glo Percent Activation at 50 μM
How it was run: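 ADP-Glo luminescence quantifying ADP from 150 nM TRAP1 preincubated 30 min at 37° C with compound (0.79–100 μM), then 20 μM ATP for 60 min at 37° C. Buffer: 25 mM Pipes pH 7.5, 40 mM KCl, 0.05 mM MgCl2, EGTA, BSA, detergents. ADP from ATP/ADP standard curve; Emax and EC50 from sigmoidal fit.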

SMILES	activation at 50 µM [%]
COc1ncc(NC(=O)c2cccc(CN3CCCC3)c2)cc1S(=O)(=O)Nc1c(C)cccc1C [compound 2591]	151 to 180
COc1ncc(NC(=O)c2ccc(S(=O)(=O)N(C)C)cc2)cc1S(=O)(=O)Nc1c(C)cccc1C [compound 2593]	151 to 180
COc1ncc(NC(=O)c2nc3c(s2)CN(C)CC3)cc1S(=O)(=O)Nc1c(C)cccc1C [compound 2594]	151 to 180
COc1ncc(NC(=O)c2ccc(C(C)=O)cc2)cc1S(=O)(=O)Nc1c(C)cccc1C [compound 2597]	181 to 352
COc1ncc(NC(=O)c2cccc(CN3CCCCC3)c2)cc1S(=O)(=O)Nc1c(C)cccc1C [compound 2599]	181 to 352
COc1ncc(NC(=O)c2ccccc2N2CCOCC2)cc1S(=O)(=O)Nc1c(C)cccc1C [compound 2602]	151 to 180
COc1ncc(NC(=O)c2cccc(C(=O)N(C)C)c2)cc1S(=O)(=O)Nc1c(C)cccc1C [compound 2613]	151 to 180
COc1ncc(NC(=O)c2snnc2C)cc1S(=O)(=O)Nc1c(C)cccc1C [compound 2615]	120 to 150
COc1ncc(NC(=O)c2ccns2)cc1S(=O)(=O)Nc1c(C)cccc1C [compound 2617]	120 to 150
COc1ncc(NC(=O)c2cccc3c2CCC3)cc1S(=O)(=O)Nc1c(C)cccc1C [compound 2621]	151 to 180
COc1ncc(NC(=O)c2cncc(N3CCCCC3)c2)cc1S(=O)(=O)Nc1c(C)cccc1C [compound 2622]	120 to 150
COc1ncc(NC(=O)c2cccn3cnnc23)cc1S(=O)(=O)Nc1c(C)cccc1C [compound 2625]	181 to 352
COc1ncc(NC(=O)c2cccc(CN(C)C)c2)cc1S(=O)(=O)Nc1c(C)cccc1C [compound 2631]	151 to 180
COc1ncc(NC(=O)c2cccc(N3CCN(C)CC3)c2)cc1S(=O)(=O)Nc1c(C)cccc1C [compound 2633]	181 to 352
COc1ncc(NC(=O)c2ccccc2CN2CCOCC2)cc1S(=O)(=O)Nc1c(C)cccc1C [compound 2634]	181 to 352
COc1ncc(NC(=O)c2cccc3c2CC(=O)N3)cc1S(=O)(=O)Nc1c(C)cccc1C [compound 2635]	181 to 352
COc1ncc(NC(=O)c2cnsc2)cc1S(=O)(=O)Nc1c(C)cccc1C [compound 2636]	120 to 150
COc1ncc(NC(=O)c2cnn(C(F)(F)F)c2)cc1S(=O)(=O)Nc1c(C)cccc1C [compound 2637]	120 to 150

SMILES	activation at 50 µM [%]
COc1ncc(NC(=O)c2ccc(S(=O)(=O)C(F)F)cc2)cc1S(=O)(=O)Nc1c(C)cccc1C [compound 2640]	151 to 180
COc1ncc(NC(=O)c2ccnc(N(C)C)n2)cc1S(=O)(=O)Nc1c(C)cccc1C [compound 2641]	181 to 352
CCN(CC)S(=O)(=O)c1ccc(C(=O)Nc2cnc(OC)c(S(=O)(=O)Nc3c(C)cccc3C)c2)cc1 [compound 2642]	151 to 180
COc1ncc(NC(=O)c2ccc(C(F)(F)F)s2)cc1S(=O)(=O)Nc1c(C)cccc1C [compound 2644]	151 to 180
COc1ncc(NC(=O)c2scnc2C(F)(F)F)cc1S(=O)(=O)Nc1c(C)cccc1C [compound 2649]	151 to 180
COc1ncc(NC(=O)c2cscn2)cc1S(=O)(=O)Nc1c(C)cccc1C [compound 2650]	120 to 150
COc1ncc(NC(=O)c2ccnn2CC(F)(F)F)cc1S(=O)(=O)Nc1c(C)cccc1C [compound 2651]	181 to 352
COc1ncc(NC(=O)c2ccc(N3CCOCC3)cn2)cc1S(=O)(=O)Nc1c(C)cccc1C [compound 2653]	151 to 180
COc1ncc(NC(=O)c2ccc(N3CCOCC3)c(F)c2)cc1S(=O)(=O)Nc1c(C)cccc1C [compound 2655]	181 to 352
COc1ncc(NC(=O)c2ccc(-n3nc(C)nc3C)cc2)cc1S(=O)(=O)Nc1c(C)cccc1C [compound 2656]	181 to 352
COc1ncc(NC(=O)c2cncs2)cc1S(=O)(=O)Nc1c(C)cccc1C [compound 2658]	120 to 150
COc1ncc(NC(=O)c2nc(C(F)(F)F)cs2)cc1S(=O)(=O)Nc1c(C)cccc1C [compound 2659]	151 to 180
COc1ncc(NC(=O)c2cnc(C(F)(F)F)s2)cc1S(=O)(=O)Nc1c(C)cccc1C [compound 2660]	120 to 150
COc1ncc(NC(=O)c2ccc(OCC(F)(F)F)cc2)cc1S(=O)(=O)Nc1c(C)cccc1C [compound 2662]	120 to 150
COc1ncc(NC(=O)c2cc3n(n2)CCC3)cc1S(=O)(=O)Nc1c(C)cccc1C [compound 2663]	151 to 180
COc1ncc(NC(=O)c2cc(NC(C)=O)ccc2Cl)cc1S(=O)(=O)Nc1c(C)cccc1C [compound 2669]	151 to 180
COc1ncc(NC(=O)c2ccc(NC(C)=O)cc2C)cc1S(=O)(=O)Nc1c(C)cccc1C [compound 2670]	151 to 180
COc1ncc(NC(=O)c2ccc(NC(=O)C3CC3)cc2)cc1S(=O)(=O)Nc1c(C)cccc1C [compound 2671]	120 to 150

Next, values leading:

activation at 50 µM [%]	SMILES
120 to 150	COc1ncc(NC(=O)c2ccsn2)cc1S(=O)(=O)Nc1c(C)cccc1C [compound 2595]
151 to 180	CCc1cc(C(=O)Nc2cnc(OC)c(S(=O)(=O)Nc3c(C)cccc3C)c2)n(C)n1 [compound 2600]
181 to 352	COc1ncc(NC(=O)c2ccn(C(C)C)n2)cc1S(=O)(=O)Nc1c(C)cccc1C [compound 2601]
120 to 150	COc1ncc(NC(=O)c2cc(C)nn2C)cc1S(=O)(=O)Nc1c(C)cccc1C [compound 2607]
151 to 180	COc1ncc(NC(=O)c2cn(C)nc2C(F)(F)F)cc1S(=O)(=O)Nc1c(C)cccc1C [compound 2608]
181 to 352	CCn1nc(C)cc1C(=O)Nc1cnc(OC)c(S(=O)(=O)Nc2c(C)cccc2C)c1 [compound 2609]
120 to 150	COc1ncc(NC(=O)c2ncn(C(C)C)n2)cc1S(=O)(=O)Nc1c(C)cccc1C [compound 2611]
151 to 180	COc1ncc(NC(=O)c2nn(C)c3c2CCC3)cc1S(=O)(=O)Nc1c(C)cccc1C [compound 2612]
120 to 150	COc1ncc(NC(=O)c2cc(C(F)(F)F)nn2C)cc1S(=O)(=O)Nc1c(C)cccc1C [compound 2614]
181 to 352	CCCc1cc(C(=O)Nc2cnc(OC)c(S(=O)(=O)Nc3c(C)cccc3C)c2)nn1C [compound 2618]
120 to 150	CCn1ccc(C(=O)Nc2cnc(OC)c(S(=O)(=O)Nc3c(C)cccc3C)c2)n1 [compound 2619]
151 to 180	COc1ncc(NC(=O)c2nn(C)cc2F)cc1S(=O)(=O)Nc1c(C)cccc1C [compound 2624]
181 to 352	CCCc1cc(C(=O)Nc2cnc(OC)c(S(=O)(=O)Nc3c(C)cccc3C)c2)n(C)n1 [compound 2626]
151 to 180	COc1cc(C(=O)Nc2cnc(OC)c(S(=O)(=O)Nc3c(C)cccc3C)c2)n(C)n1 [compound 2627]
120 to 150	COc1ncc(NC(=O)c2cn(C)nc2C)cc1S(=O)(=O)Nc1c(C)cccc1C [compound 2628]
181 to 352	COc1ncc(NC(=O)c2nc(C)cs2)cc1S(=O)(=O)Nc1c(C)cccc1C [compound 2629]
120 to 150	CCn1cncc1C(=O)Nc1cnc(OC)c(S(=O)(=O)Nc2c(C)cccc2C)c1 [compound 2630]
120 to 150	COc1ncc(NC(=O)c2cncn2C)cc1S(=O)(=O)Nc1c(C)cccc1C [compound 2632]
151 to 180	COc1ncc(NC(=O)c2cnn(C)c2Cl)cc1S(=O)(=O)Nc1c(C)cccc1C [compound 2638]
151 to 180	COc1ncc(NC(=O)c2cnn(C(C)C)c2)cc1S(=O)(=O)Nc1c(C)cccc1C [compound 2639]
181 to 352	COc1ncc(NC(=O)c2nn(C)cc2C)cc1S(=O)(=O)Nc1c(C)cccc1C [compound 2643]
151 to 180	COc1ncc(NC(=O)c2cc(C)nn2C(F)F)cc1S(=O)(=O)Nc1c(C)cccc1C [compound 2646]
120 to 150	COc1ncc(NC(=O)c2scnc2C)cc1S(=O)(=O)Nc1c(C)cccc1C [compound 2654]
181 to 352	COc1ccnc(C(=O)Nc2cnc(OC)c(S(=O)(=O)Nc3c(C)cccc3C)c2)c1 [compound 2657]
151 to 180	COc1ncc(NC(=O)c2cnc(C)s2)cc1S(=O)(=O)Nc1c(C)cccc1C [compound 2661]
120 to 150	COCCn1ccc(C(=O)Nc2cnc(OC)c(S(=O)(=O)Nc3c(C)cccc3C)c2)n1 [compound 2665]
120 to 150	COc1ncc(NC(=O)c2ccn(C)c2)cc1S(=O)(=O)Nc1c(C)cccc1C [compound 2666]
181 to 352	COc1ncc(NC(=O)c2ncsc2C)cc1S(=O)(=O)Nc1c(C)cccc1C [compound 2667]
120 to 150	COc1ncc(NC(=O)c2ncn(C)c2C(F)(F)F)cc1S(=O)(=O)Nc1c(C)cccc1C [compound 2672]
